This note sets out measurements from article PMC4627231, “Targeting the sugar metabolism of tumors with a first-in-class 6-phosphofructo-2-kinase (PFKFB4) inhibitor” (Oncotarget, 2015).

One data set concerns glycolysis in H460 cells. The data set can be described thus: Glycolysis assay (3H2O from 5-[3H]glucose). The following applies: 10 μM, 6-72 hours. The format is cell-based, human. On the procedure: Cells growing in 6-well plates were incubated in 500 μl of complete medium containing 1 μCi of 5-[^3H]glucose per well for 60 min in 5% CO2 at 37°C. Media was collected, ^3H2O formed via glycolysis from the 5-[^3H]glucose measured and counts normalized as previously described. All data are expressed as the mean ± SD of three experiments. Statistical significance was assessed by the two-sample t test (independent variable).

The next data set has as its system ATP in H460 cells. Kind of data set: Intracellular ATP measurement. The format is cell-based, human. The note with it: 10 μM, 6-72 hours. On the procedure:
Cells were lysed and intracellular ATP determined as described previously. All data are expressed as the mean ± SD of three experiments. Statistical significance was assessed by the two-sample t test (independent variable).

The test system of data set [1] is Large T antigen-immortalized, tamoxifen-inducible PFKFB4-/- fibroblasts. Kind of data set: Viable cell count (trypan blue exclusion). The following applies: fibroblasts ± 10 μM 4HT, 10 μM 5MPN, 24 hours. The format is cell-based, mice. An excerpt: H460, H1299, H441, H522 and A549 non-small cell lung cancer (NSCLC), MDA-MB-231 (breast), LNCaP (prostatic) and HCT116 (colon) adenocarcinoma and Lewis lung carcinoma (LLC) cell lines were obtained from ATCC (authenticated by STR analysis) and were used within 6 months of acquisition. PFKFB4^−/− ear pinna fibroblasts isolated from TamCre/loxP/PFKFB4^−/− mice were immortalized as described previously. Normal bronchial epithelial cells (NHBE) were obtained from Lonza and NHBE cells expressing telomerase, SV40 large T antigen and activated Ras (hT/LT/Ras) were a gift from Dr. B. J. Rollins, Dana Farber Cancer Institute. All cell lines were tested and found negative for mycoplasma (PCR Mycoplasma Detection Kit, ABM). Cell lines were grown in DMEM (A549, LNCaP, MDA-MB-231, LLC and PFKFB4^−/−), RPMI 1640 (H460, H1299, H441, H522) and McCoy's 5A media (HCT116) (all from Invitrogen) containing 10% fetal calf serum (Hyclone). NHBE and hT/LT/Ras cells were grown in BEGM containing SingleQuots (Lonza). All lines were cultured at 37°C in 5% CO2. […]
Viability was determined using trypan blue exclusion as previously described. […] Cells excluding trypan blue were counted using a standard hemocytometer (Hausser Scientific) to determine total numbers of viable cells. Data are expressed as mean ± SD of three experiments.

For the next data set, the system named is H460 cells. Kind of data set: Apoptosis by flow cytometry (annexin V / propidium iodide). The following applies: 10μM 5MPN. The format is cell-based, human. On the procedure: To measure apoptosis, cells were stained with annexin V and propidium iodide and examined as previously described. For cell cycle experiments, cells were detached, washed with cold PBS and fixed in 70% ethanol at 4°C for 30 minutes. The cells then were pelleted by centrifugation, resuspended in PBS containing PI and RNase A, incubated at 37°C in the dark for 30 minutes and analyzed by flow cytometry (BD FACSCalibur). Data were analyzed using FlowJo software (TREE STAR Inc.). Results were calculated as the mean ± SD of three experiments and data shown are representative of three independent experiments.
Background: Flow cytometry measures light scatter and fluorescence of single cells or particles in a stream.

Data set [2] can be described thus: Pharmacokinetic profile after IV and oral administration. The format is in vivo. The following applies: mouse, female C57BL/6 mice, plasma. How it is done:
The pharmacokinetic profile was determined in female C57BL/6 mice (Charles River Laboratories) following IV and oral administration of 5MPN. Using only female mice lowered the animal numbers required for meaningful results without issues of potential gender differences in exposure. Eight time points (n=3 per time point) were used to determine indicated PK parameters calculated using WinNonLin v5.0. Plasma samples were extracted using acetonitrile and analyzed by LC/MS-MS using a PhenomexSynergi Polar-RP 4micron 50×2.0 mm column eluted with a biphasic mobile phase (0.5% formic acid in acetonitrile and water).

In another data set the test system is C57BL/6 mice. Kind of data set: Two-week oral toxicity study. The format is in vivo. The following applies: 120 mg/kg PO, two weeks. On the procedure: Given the potential usefulness of oral administration in terms of cost and convenience, we elected to pursue this route in subsequent toxicity and efficacy pre-clinical studies. Initially, we dosed C57BL/6 mice with 120 mg/kg PO (dose chosen based on a dose escalation trial) for two weeks and analyzed the effect on complete blood counts, electrolytes, hepatic and renal function, body mass and the gross and histological appearance of the brain, heart, lungs, liver, kidneys and spleen. […] We confirmed that 5MPN caused a G1 arrest in LLC cells in vitro similar to H460 cells (Figure 4G) and then examined the number of Ki67-positive cells since Ki67 expression correlates with later S and G2 phases of the cell cycle.

Data set [3] has as its system Lewis lung carcinomas (LLC). The data set can be described thus: Lewis lung carcinoma tumor growth in syngeneic mice. The note with it: 120 mg/kg daily by gavage. The format is in vivo, C57BL/6 mice. How it is done:
For xenograft studies, LLC or H460 cells collected from exponential growth phase culture were washed and resuspended in PBS. Groups of female C57BL/6 mice were injected with LLC cells (n=10 per group, s.c., 1×10^6 cells) and groups of female BALB/c athymic mice (Charles River) were injected with H460 cells (n=10 per group, s.c, 5 × 10^6 cells). Tumor masses were determined in a blinded fashion with Vernier calipers using the formula: mass (mg) = (width, mm)^2 X (length, mm)/2 as previously described. When tumor masses were 150-200 mg, mice were randomized to daily DMSO or 5MPN (in 30% Captisol, 100 μl, by gavage). Tumor measurements and body weights were followed daily. All data are expressed as the mean ± SD of two experiments. Statistical significance was assessed by the two-sample t test (independent variable).

Data set [4] relates to Ki67-positive cells in LLC xenografts. Kind of data set: Ki67 immunohistochemistry of LLC tumors. The note with it: oral administration. The format is in vivo, C57BL/6 mice. How it is done:
Five μm mounted sections of formalin-fixed, paraffin-embedded LLC tumor tissues were processed as previously described and then incubated with anti-Ki-67 primary antibody (Abcam) overnight, followed by HRP-linked goat anti-rabbit secondary antibody (1:300, Pierce). Sections were developed with 3,3′-diaminobenzidine tetrahydrochloride and counterstained as previously described. Slides were scanned using a ScanScope XT Digital Slide Scanner (Aperio), data analyzed with the positive pixel count algorithm (ImageScope, Aperio) and a minimum of 5 fields (20x magnification) were quantified for each tumor section. The data are depicted as % positive pixels/total pixels ± SD.

A word on the AUC(0-inf): it is the area under the concentration-time curve extrapolated to infinity. What is called AUC(0-t) is exposure summed from dosing to a finite time, without extrapolation to infinity. By half-life is commonly meant the time in which the quantity being followed falls by half. A word on the MRT: it is the average time that molecules of a dose stay in the body. In general, Cmax refers to the highest concentration seen after dosing. As a reminder, the bioavailability is dose-corrected exposure relative to a reference, in per cent. For `COc1cccc2c(NCCCCCO[N+](=O)[O-])ccnc12` [Compound 5MPN, 5-(n-(8-methoxy-4-quinolyl)amino)pentyl nitrate], the effect on glycolysis entry with glycolysis in H460 cells is “reduced”. Also, in the data set on ATP in H460 cells, the “effect on ATP” value is “reduced”. Moreover, in data set [1], the “effect of genomic deletion of Pfkfb4 on anti-proliferative effect” value is reported as “sensitized”. Besides, the “increase in apoptotic cells” value in the data set on H460 cells is reported as “only a minimal increase”. Further, in data set [2] (iv, 2 mg/kg, I.V.), the AUC(0-inf) is 114 ng·h/mL, the AUC(0-t) stood at 111 ng·h/mL, the C0 worked out at 249 ng/mL and the half-life was 0.387 h. Further, in data set [2] (iv, 2 mg/kg, I.V., read-out: Vss), the Vd was found to be 8.48 L/kg. Moreover, in data set [2] (iv, I.V.), the MRT was determined as 0.485 h and the clearance amounted to 291 mL/min/kg. Besides, the mean residence time MRT in data set [2] (po, 10 mg/kg, P.O) was 2.31 h. In addition, in data set [2] (po, P.O), the AUC(0-inf) was 234 ng·h/mL, the AUC(0-t) worked out at 225 ng·h/mL, the Cmax was determined as 98.7 ng/mL and the bioavailability turned out to be 40.9%. The half-life in data set [2] (po, P.O) was 1.67 h. Moreover, in the data set with C57BL/6 mice, the “signs of toxicity (blood counts, electrolytes, hepatic and renal function, body mass, organ histology, behavior)” value is reported as “no signs of toxicity”. The tumor growth result in data set [3] (LLC in syngeneic C57BL/6 mice) is listed as “suppressed the growth”. The body weight result in data set [3] (LLC-bearing C57BL/6 mice) is reported as “without affecting body weight”. The Ki67-positive cells entry in data set [4] is on record as “reduction”.
